Experimental data: patent US5756423A, “Method of controlling plants by inhibition of farnesyl pyrophosphate synthase” (Zeneca Limited, priority 1997, dated 1998)
Read-outs that look alike come from different tables or passages of the source.

Columns and labels:
[1] = test system: wild mustard (Brassica kaber), also known as Sinapis arvensis (SINAR); assay: post-emergent herbicidal test, wild mustard; format: in vivo; conditions: Brassica, post-emergence, post-emergent, 1.0 kg/ha (*), 17-21 days after application; read-out: SINAR percent control
Summary of the method: (§1)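 Percent injury (0 = no effect, 100 = complete kill) scored 17–21 days post-treatment against untreated flats. Foliar spray at 1 or 4 kg/ha in deionized water plus 0.5% v/v Tween 20, onto greenhouse plants (29/21 °C, 14 h light) at 3–4 leaf (grasses) or 1–2 leaf (broadleaves) stage.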

[2] = test system: barnyard grass (Enchinochloa crusgalli) (ECHCG); assay: post-emergent herbicidal test, barnyard grass; format: in vivo; conditions: Echinochloa crus-galli, post-emergence, post-emergent, 1.0 kg/ha (*), 17-21 days after application; read-out: ECHCG percent control
Summary of the method: as §1

[3] = test system: yellow nutsedge (Cyperus esculentus) (CYPES); assay: post-emergent herbicidal test, yellow nutsedge; format: in vivo; conditions: Cyperus, post-emergence, post-emergent, 1.0 kg/ha (*), 17-21 days after application; read-out: CYPES percent control
Summary of the method: as §1

[4] = test system: farnesyl pyrophosphate synthase in daffodil chromoplasts; assay: inhibition of farnesyl pyrophosphate synthase in daffodil chromoplasts (14C-isopentenyl pyrophosphate incorporation); format: biochemical, Narcissus pseudonarcissus; conditions: unit inferred, IC50 values in nM, read-out: IC50
Summary of the method: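 Daffodil chromoplasts in pH 7.7 sucrose/MgCl2/HEPES buffer with cysteine, NaF and BSA, started with ~3 micromolar 14C-isopentenyl pyrophosphate, 30 min at 30° C. Butanol-extractable radioactivity counted by scintillation; % residual activity calculated against zero-time and end-point no-inhibitor controls.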

[5] = test system: green foxtail (Setaria viridis) (SETVI); assay: post-emergent herbicidal test, green foxtail; format: in vivo; conditions: Setaria viridis, post-emergence, post-emergent, 1.0 kg/ha (*), 17-21 days after application; read-out: SETVI percent control
Summary of the method: as §1

[6] = test system: wild oat (Avena fatua) (AVEFA); assay: post-emergent herbicidal test, wild oat; format: in vivo; conditions: Avena fatua, post-emergence; post-emergent, 1.0 kg/ha (*), 17-21 days after application; read-out: AVEFA percent control
Summary of the method: as §1

[7] = test system: velvetleaf (Abutilon theophrasti) (ABUTH); assay: post-emergent herbicidal test, velvetleaf; format: in vivo; conditions: Abutilon theophrasti, post-emergence, post-emergent, 1.0 kg/ha (*), 17-21 days after application; read-out: ABUTH percent control
Summary of the method: as §1

[8] = test system: morningglory (Ipomoea spp.) (IPOSS); assay: post-emergent herbicidal test, morningglory; format: in vivo; conditions: Ipomoea, post-emergence, post-emergent, 1.0 kg/ha (*), 17-21 days after application; read-out: IPOSS percent control
Summary of the method: as §1

IC50 ([4]; Table I) | IC50 ([4]; Table II) | Compound | pest or weed control at 1000 g/ha [1] | pest or weed control at 1000 g/ha [2] | pest or weed control at 1000 g/ha [3] | pest or weed control at 1000 g/ha [5] | pest or weed control at 1000 g/ha [6] | pest or weed control at 1000 g/ha [7] | pest or weed control at 1000 g/ha [8]
91 nM | 91 nM | CCCN(CC(C)C)CC(P(=O)(O)O)P(=O)(O)O [Compound 51] | 100% | 98% | 5% | 98% | 100% | 70% | 15%
87 nM | 87 nM | CCCCN(CCC)CC(P(=O)(O)O)P(=O)(O)O [Compound 52] | 100% | 100% | 20% | 100% | 100% | 75% | 20%
112 nM | 112 nM | CCC1CCCCN1CC(P(=O)(O)O)P(=O)(O)O (stereo not drawn) [Compound 53] | 90% | 100% | 5% | 98% | 98% | 70% | 30%
479 nM | 479 nM | CCCN(CCC(=O)O)CC(P(=O)(O)O)P(=O)(O)O [Compound 54] | 10% | 0% | 0% | 10% | 0% | 0% | 5%
32 nM | 32 nM | CC[C@H](C)NCC(P(=O)(O)O)P(=O)(O)O [Compound 56] | 100% | 100% | 60% | 100% | 100% | 95% | 98%
96 nM | 96 nM | CC1CCCN(CC(P(=O)(O)O)P(=O)(O)O)C1C (stereo not drawn) [Compound 57] | 100% | 100% | 15% | 100% | 100% | 80% | 90%
107 nM | 107 nM | Cc1cn(CC(P(=O)(O)O)P(=O)(O)O)cn1 [Compound 58] | 100% | 98% | 10% | 100% | 100% | 98% | 90%
135 nM | 135 nM | CCCCCCN(CCC)CC(P(=O)(O)O)P(=O)(O)O [Compound 59] | 90% | 90% | 5% | 95% | 85% | 30% | 20%
1410 nM | 1410 nM | Cc1cnn(CC(P(=O)(O)O)P(=O)(O)O)c1 [Compound 60] | 20% | 30% | 0% | 30% | 10% | 10% | 5%
1000 nM | 1000 nM | CCCN(CCC(C)C)CC(P(=O)(O)O)P(=O)(O)O [Compound 61] | 90% | 100% | 10% | 90% | 100% | 70% | 30%
